In ChEMBL document CHEMBL1201862, “PubChem BioAssay data set” (2004):
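Grown in 96-well plates, cells were treated for 48 hours with each compound at five concentrations. Insufficient inhibition: endpoint recorded as highest concentration tested. GI50 = concentration required for 50% inhibition of growth.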 Active and inactive are the calls of the source. Rule as the data show it: active = GI50 up to about 1.1 µM and inactive = higher.

Key:
Assay in all cases: NCI tumour cell line growth inhibition, 48 h
[1] = test system: 786-0
[2] = test system: A498
[3] = test system: A549
[4] = test system: ACHN
[5] = test system: BT-549
[6] = test system: CAKI-1
[7] = test system: CCRF-CEM
[8] = test system: COLO 205
[9] = test system: DU-145
[10] = test system: EKVX
[11] = test system: HCC 2998
[12] = test system: HCT-116
[13] = test system: HCT-15
[14] = test system: HOP-62
[15] = test system: HOP-92
[16] = test system: HT-29
[17] = test system: Hs-578T
[18] = test system: IGROV-1
[19] = test system: K562
[20] = test system: KM12
[21] = test system: LOX IMVI
[22] = test system: M14
[23] = test system: MCF7
[24] = test system: MDA-MB-231
[25] = test system: MDA-MB-435
[26] = test system: MDA-N
[27] = test system: MOLT-4
[28] = test system: Malme-3M
[29] = test system: NCI-H226
[30] = test system: NCI-H23
[31] = test system: NCI/ADR-RES
[32] = test system: OVCAR-3
[33] = test system: OVCAR-4
[34] = test system: OVCAR-5
[35] = test system: OVCAR-8
[36] = test system: PC-3
[37] = test system: RPMI-8226
[38] = test system: RXF 393
[39] = test system: SF-268
[40] = test system: SF-295
[41] = test system: SK-MEL-28
[42] = test system: SK-MEL-2
[43] = test system: SK-MEL-5
[44] = test system: SK-OV-3
[45] = test system: SN12C
[46] = test system: SNB-19
[47] = test system: SNB-75
[48] = test system: SW-620
[49] = test system: T47D
[50] = test system: TK-10
[51] = test system: U-251
[52] = test system: UACC-257
[53] = test system: UACC-62
[54] = test system: UO-31
[55] = test system: HL-60
[56] = test system: NCI-H460
[57] = test system: NCI-H522
[58] = test system: SF-539

Cc1ccsc1/C=N/Nc1ccccn1
GI50 [1]: 68.5 µM (inactive)
GI50 [2]: 55 µM (inactive)
GI50 [3]: 7.4 µM (inactive)
GI50 [4]: 74.6 µM (inactive)
GI50 [5]: > 100 µM (inactive)
GI50 [6]: > 100 µM (inactive)
GI50 [7]: 40.5 µM (inactive)
GI50 [8]: 71.1 µM (inactive)
GI50 [9]: 55.6 µM (inactive)
GI50 [10]: 15.2 µM (inactive)
GI50 [11]: 99.5 µM (inactive)
GI50 [12]: 43.8 µM (inactive)
GI50 [13]: 60.1 µM
GI50 [14]: > 100 µM (inactive)
GI50 [15]: 49.3 µM (inactive)
GI50 [16]: 32.8 µM (inactive)
GI50 [17]: > 100 µM (inactive)
GI50 [18]: 16.9 µM (inactive)
GI50 [19]: 43.1 µM (inactive)
GI50 [20]: 35.6 µM (inactive)
GI50 [21]: 37.2 µM (inactive)
GI50 [22]: 54 µM (inactive)
GI50 [23]: 1.71 µM (inactive)
GI50 [24]: 50 µM (inactive)
GI50 [25]: 50.6 µM (inactive)
GI50 [26]: 50.6 µM (inactive)
GI50 [27]: 32.8 µM (inactive)
GI50 [28]: 34.8 µM (inactive)
GI50 [29]: > 100 µM (inactive)
GI50 [30]: 70.6 µM (inactive)
GI50 [31]: 45.3 µM (inactive)
GI50 [32]: 47.5 µM (inactive)
GI50 [33]: 76.2 µM (inactive)
GI50 [34]: > 100 µM (inactive)
GI50 [35]: 66.1 µM (inactive)
GI50 [36]: 39.5 µM (inactive)
GI50 [37]: 19.3 µM (inactive)
GI50 [38]: > 100 µM (inactive)
GI50 [39]: > 100 µM (inactive)
GI50 [40]: > 100 µM (inactive)
GI50 [41]: 98.6 µM (inactive)
GI50 [42]: 34.3 µM (inactive)
GI50 [43]: 25.9 µM (inactive)
GI50 [44]: > 100 µM (inactive)
GI50 [45]: > 100 µM (inactive)
GI50 [46]: > 100 µM (inactive)
GI50 [47]: 50.2 µM (inactive)
GI50 [48]: 74.3 µM (inactive)
GI50 [49]: 60.7 µM (inactive)
GI50 [50]: 57.3 µM (inactive)
GI50 [51]: 76.6 µM (inactive)
GI50 [52]: 54.2 µM (inactive)
GI50 [53]: 74 µM (inactive)
GI50 [54]: 71.3 µM (inactive)

Cc1ccc(S(=O)(=O)c2scc(-c3ccccc3)c2C)cc1
GI50 [1]: > 100 µM (inactive)
GI50 [3]: 57.8 µM (inactive)
GI50 [4]: 67.6 µM (inactive)
GI50 [5]: 98.6 µM (inactive)
GI50 [6]: > 100 µM (inactive)
GI50 [8]: > 100 µM (inactive)
GI50 [9]: 93.5 µM (inactive)
GI50 [10]: 37.6 µM (inactive)
GI50 [11]: > 100 µM (inactive)
GI50 [12]: 77.1 µM (inactive)
GI50 [13]: > 100 µM
GI50 [55]: 45 µM (inactive)
GI50 [14]: > 100 µM (inactive)
GI50 [15]: 72.4 µM (inactive)
GI50 [16]: > 100 µM (inactive)
GI50 [17]: > 100 µM (inactive)
GI50 [18]: > 100 µM (inactive)
GI50 [19]: 53 µM (inactive)
GI50 [20]: > 100 µM (inactive)
GI50 [21]: 64.3 µM (inactive)
GI50 [22]: > 100 µM (inactive)
GI50 [23]: 61.1 µM (inactive)
GI50 [24]: > 100 µM (inactive)
GI50 [25]: 91 µM (inactive)
GI50 [26]: > 100 µM (inactive)
GI50 [27]: 42.7 µM (inactive)
GI50 [28]: > 100 µM (inactive)
GI50 [29]: > 100 µM (inactive)
GI50 [30]: 38.1 µM (inactive)
GI50 [56]: > 100 µM (inactive)
GI50 [57]: > 100 µM (inactive)
GI50 [31]: 35.5 µM (inactive)
GI50 [32]: 77.3 µM (inactive)
GI50 [33]: > 100 µM (inactive)
GI50 [35]: > 100 µM (inactive)
GI50 [36]: 89.3 µM (inactive)
GI50 [37]: 44.2 µM (inactive)
GI50 [38]: > 100 µM (inactive)
GI50 [39]: > 100 µM (inactive)
GI50 [40]: 42.8 µM (inactive)
GI50 [58]: 61 µM (inactive)
GI50 [41]: > 100 µM (inactive)
GI50 [42]: 62.8 µM (inactive)
GI50 [43]: 40.2 µM (inactive)
GI50 [44]: > 100 µM (inactive)
GI50 [45]: > 100 µM (inactive)
GI50 [46]: > 100 µM (inactive)
GI50 [47]: > 100 µM (inactive)
GI50 [48]: > 100 µM (inactive)
GI50 [49]: 36.5 µM (inactive)
GI50 [50]: > 100 µM (inactive)
GI50 [51]: > 100 µM (inactive)
GI50 [52]: 74 µM (inactive)
GI50 [53]: > 100 µM (inactive)
GI50 [54]: > 100 µM (inactive)

COc1ccc(/C=C2\CN(C)Cc3c2nc(O)c(C#N)c3-c2ccc(OC)cc2)cc1
GI50 [1]: 18.2 µM (inactive)
GI50 [3]: 44.6 µM (inactive)
GI50 [4]: > 100 µM (inactive)
GI50 [5]: > 100 µM (inactive)
GI50 [6]: > 100 µM (inactive)
GI50 [7]: 40.5 µM (inactive)
GI50 [8]: 66.1 µM (inactive)
GI50 [9]: 97.5 µM (inactive)
GI50 [10]: > 100 µM (inactive)
GI50 [12]: 60.7 µM (inactive)
GI50 [13]: 64.9 µM
GI50 [55]: 13.3 µM (inactive)
GI50 [14]: 51.2 µM (inactive)
GI50 [15]: 25.2 µM (inactive)
GI50 [16]: 38.5 µM (inactive)
GI50 [17]: 35.1 µM (inactive)
GI50 [18]: 50 µM (inactive)
GI50 [19]: 57.5 µM (inactive)
GI50 [20]: 32.6 µM (inactive)
GI50 [21]: 92.7 µM (inactive)
GI50 [22]: 39.7 µM (inactive)
GI50 [23]: 16.5 µM (inactive)
GI50 [24]: > 100 µM (inactive)
GI50 [25]: > 100 µM (inactive)
GI50 [26]: 47.2 µM (inactive)
GI50 [27]: 42 µM (inactive)
GI50 [28]: 12.5 µM (inactive)
GI50 [29]: > 100 µM (inactive)
GI50 [30]: > 100 µM (inactive)
GI50 [56]: 29.6 µM (inactive)
GI50 [57]: 48.8 µM (inactive)
GI50 [31]: 56.2 µM (inactive)
GI50 [32]: 54.1 µM (inactive)
GI50 [33]: 37.1 µM (inactive)
GI50 [34]: > 100 µM (inactive)
GI50 [35]: 31.3 µM (inactive)
GI50 [36]: 44.4 µM (inactive)
GI50 [37]: 21.7 µM (inactive)
GI50 [38]: 24.3 µM (inactive)
GI50 [39]: 26.7 µM (inactive)
GI50 [40]: 38.3 µM (inactive)
GI50 [41]: > 100 µM (inactive)
GI50 [42]: 94 µM (inactive)
GI50 [43]: > 100 µM (inactive)
GI50 [44]: 38.1 µM (inactive)
GI50 [45]: 42.5 µM (inactive)
GI50 [46]: 34.5 µM (inactive)
GI50 [48]: > 100 µM (inactive)
GI50 [49]: 80.4 µM (inactive)
GI50 [50]: 43.4 µM (inactive)
GI50 [51]: 80.2 µM (inactive)
GI50 [52]: > 100 µM (inactive)
GI50 [53]: > 100 µM (inactive)
GI50 [54]: > 100 µM (inactive)
